# Laboratory results reported in patent US20090110748A1, “Biocompatible Material and Process for Manufacturing the Same” (priority 2007, published 2009).
# Assays:
# [1] = tested on: osteoporotic model mice; experiment: Mineral concentration and ALP activity in mouse sera; type: in vivo; settings: ovariectomized ICR female mice, fed test feeds for 2 months (doses Table 4)
# Experimental: (§1) For study ICR female model mice of 10 weeks (of 20 g) were used. These mice underwent ovariectomy (OVX control group) and sham operation (sham operated group), and were subsequently fed with a conventional diet for 2 months, and then divided into 6 groups, each group having 10 mice. Of these, an OVX control group and a sham operated group were fed with 1.5 to 1.8% calcium containing feed which contained calcium carbonate as a calcium source. Further as a reference group, one group was treated with a bisphosphonate preparation (risedronate), which is an anti-osteoporotic agent showing obviously higher bone density. Remaining 3 groups were fed with special feeds, containing foodstuff and food additives. Combinations of foodstuff and food additives used in the present study are shown below in Table 4.
# (§2) After being fed these feeds for 2 months, mice were decapitated for blood collection. Then serum was separated from the collected blood, and after that calcium, phosphorus, and magnesium concentrations and alkaline phosphatase level of the serum were determined. Furthermore, after a resection of femurs, a three-dimensional bone densitometry and bone structure analysis were conducted on the femoral distal epiphyses and diaphyses, using pQCT (Peripheral Quantitative Computed Tomography) and μCT (micro focus X-ray CT).
# Subsequently, blood was collected from the tested mice of each group, and mineral concentration and ALP activity in serum were determined. Blood collection was conducted by decapitating under a twilight sleep. The collected blood stood for 1 hour at ice temperature, and thereafter the serum was separated by a centrifuge for 10 minutes at 1000 rpm. Calcium amount was determined by chelete coloring method. 50 μL of serum was added to 5 mL of a 0.88 M monoethanolamine buffer adjusted to pH=11, and a mixture of o-cresol-phthalein complexone and 8-quinolinol as a coloring agent was further added. The resulting mixture was sufficiently stirred and stood for 5 minutes, and thereafter absorbance at 570 nm determined using a spectrometer. Phosphorus was determined by direct molybdenum blue method. After 0.2 mL of serum was added to 5 mL of a coloring agent and the resulting mixture stood for 15 minutes at room temperature, absorbance at 690 nm was determined using a spectrometer. The coloring agent was prepared by adding a surfactant to a mixture of ammonium molybdate, ammonium ferrous sulfate and sulfate. Magnesium was determined by xylidyl blue method. 3 mL of a coloring agent was added to 20 μL of serum and the resulting mixture stood for 10 minutes at room temperature, and thereafter absorbance at 520 nm was determined using a spectrometer. The coloring agent was prepared by adding a surfactant to a mixture of xylylazo violet I and ethylene glycol tetraacetic acid.
# Alkaline phosphatase was determined by phenyl phosphoric acid substrate method. After 50 μL of serum was added to 2 mL of a substrate buffer and heated at 37° C. for 15 minutes, 2 mL of 36 mM potassium ferricyanide. The resulting mixture was sufficiently stirred, and thereafter absorbance at 570 nm was determined using a spectrometer. The substrate buffer was prepared by adding a mixture of 4-aminoantipyrine and phenylphosphoric acid to 50 mM carbonate buffer adjusted to pH=10.5.
# In all of these determinations assay kits for clinical and biochemical use manufactured by Wako Pure Chemicals, Co., Ltd. were used.
# [2] = tested on: osteoporotic model mice; experiment: μCT three-dimensional trabecular structure analysis of femoral distal epiphyses; type: in vivo, mouse; settings: for Conclusion of 3-D image analysis: effects on bone density and trabecular structure: OVX mice, distal epiphyses and diaphyses, FIGS. 8 and 9; for Order according to the importance of the effects on improvement of trabecular bone structure: ranked after sham and risedronate groups
# Experimental: as §1, §2
# For an analysis of the trabecular structure, three-dimensional image data of femoral distal epiphyses were acquired using X-ray μCT (MCT-CB130F, Hitachi Medico), of 8×8 μm focus, with micro focus X-ray tube. As conditions for imaging, tube voltage was 40 kV, tube current 100 μA, and voxel size 17.8×17.8×17.8 μm, so that 50 volume data for each were acquired. Three-dimensional images were reconstructed based on the acquired 50 two-dimensional images of a trabecular bone and a cortical bone. 3D parameters were then determined on these 3D images using trabecular structure measuring software (TRI/3D-BON; RATOC System Engineering, Co., Ltd). The determined structural parameters are listed below in Table 5.
# Student's t-test was used for statistical treatment for comparison between the groups. Only the parameters showing significant difference in the OVX control group are compared to those in the remaining groups.
# [3] = tested on: osteoporotic model mice; experiment: pQCT three-dimensional bone densitometry of femoral distal epiphyses and diaphyses; type: in vivo, mouse; settings: for Items showing a significant difference: number of the 14 pQCT parameters (epiphyses and diaphyses) differing significantly from OVX control group; for Epiphyses Bone Density, significant difference vs OVX control group / Epiphyses Cortical Bone Cross-Section, significant difference vs OVX control group / Epiphyses Cortical Bone Thickness, significant difference vs OVX control group / Epiphyses Trabecular Bone Density, significant difference vs OVX control group: femoral distal epiphyses
# Experimental: as §1, §2
# Subsequently, a bone mass density (mg/cm^3) as a physical quantity was analyzed separately for trabecular bones and cortical bones based on three-dimensional bone densitometry conducted using pQCT on the femoral distal epiphyses and diaphyses and cross-sectional images acquired in pQCT, and bone strength index was identified based on cortical bone width, second moment of area, and section modulus etc. Student's t-test was used for statistical treatment for comparison between the groups.
# [4] = pQCT, femoral diaphyses, p value, Student's t-test, 2 months feeding
# [5] = pQCT, femoral diaphyses, p value, Student's t-test, 2 months feeding, listed as risedronate
# [6] = pQCT, p value, Student's t-test, 2 months feeding
# [7] = pQCT, p value, Student's t-test, 2 months feeding, listed as risedronate
SMILES,ALP activity in serum [1] [BL unit],Ca in serum [1] [mg/dL],Mg in serum [1] [mg/dL],P in serum [1] [mg/dL],Items showing a significant difference [3],Conclusion of 3-D image analysis: effects on bone density and trabecular structure [2],"Order according to the importance of the effects on improvement of trabecular bone structure ([2]; μCT, femoral distal epiphyses)",further results
"O=P(O)(O)C(O)(Cc1cccnc1)P(=O)(O)O [Risedronate, risedronate]",3.65 ± 1.26,9.02 ± 1.15,3.12 ± 1.21,6.95 ± 0.32,6,,,"Number of parameters with significant effects on improvement of trabecular bone structure ([2]; μCT, femoral distal epiphyses, vs OVX control group (Table 9)): 12; Diaphyses Cortical Bone Cross-Section, significant difference vs OVX control group [3, 4]: p < 0.05; Diaphyses Cortical Bone Thickness, significant difference vs OVX control group [3, 4]: p < 0.05; Diaphyses Cortical Bone Cross-Section, significant difference vs OVX control group [3, 5]: significant increase; Diaphyses Cortical Bone Thickness, significant difference vs OVX control group [3, 5]: significant increase; Epiphyses Bone Density, significant difference vs OVX control group [3, 6]: p < 0.01; Epiphyses Cortical Bone Cross-Section, significant difference vs OVX control group [3, 6]: p < 0.05; Epiphyses Cortical Bone Thickness, significant difference vs OVX control group [3, 6]: p < 0.05; Epiphyses Trabecular Bone Density, significant difference vs OVX control group [3, 6]: p < 0.05; Epiphyses Bone Density, significant difference vs OVX control group [3, 7]: significant increase; Epiphyses Cortical Bone Cross-Section, significant difference vs OVX control group [3, 7]: significant increase; Epiphyses Cortical Bone Thickness, significant difference vs OVX control group [3, 7]: significant increase; Epiphyses Trabecular Bone Density, significant difference vs OVX control group [3, 7]: significant increase"
"CC(C)=CCC/C(C)=C/CC/C(C)=C/CC/C(C)=C/CC/C(C)=C/CC/C(C)=C/CC/C(C)=C/CC1=C(C)C(=O)c2ccccc2C1=O [MK-7, Vitamin K2 (MK-7)]",3.77 ± 1.76,9.34 ± 1.50,2.63 ± 0.63,7.12 ± 0.64,4,"both effects on an increased bone density and improved trabecular structure, with the improvement in trabecular structure being prevalent effect","MK7, the composite and MK4 is arranged in this order","Diaphyses parameters, difference vs OVX control group ([3]; pQCT, femoral diaphyses, all parameters): no significant difference"
"CC(C)=CCC/C(C)=C/CC/C(C)=C/CC/C(C)=C/CC1=C(C)C(=O)c2ccccc2C1=O [MK-4, Vitamin K2 (MK-4)]",3.52 ± 1.82,9.60 ± 0.51,2.67 ± 0.28,6.96 ± 0.44,2,improvement in bone internal structure was observed as a prevalent effect,"MK7, the composite and MK4 is arranged in this order","Diaphyses Trabecular Bone Density, significant difference vs OVX control group [3, 4]: p < 0.05"
